In US11155552B2, “Rutaecarpine analogs and applications thereof” (TAIPEI MEDICAL UNIVERSITY, priority 2018, dated 2021):

Assays:
COX-2 [1] = test: COX-2 protein expression in LPS-treated RAW264.7 macrophages (Western blot); format: cell-based; conditions: FIG. 2(a)
Experimental: (§1) Protein samples were separated and resolved by sodium dodecylsulfate polyacrylamide gel electrophoresis (SDS-PAGE) and electrotransferred onto a polyvinylidene difluoride (PVDF) membrane. The membrane was incubated with a primary antibody at 4° C. overnight, and then incubated with a horseradish peroxidase (HRP)-conjugated secondary immunoglobulin G (IgG) antibody; immunoreactive bands were visualized with PerkinElmer enhanced chemiluminescent reagents.

H460 = test: MTT cell viability assay, H460; format: cell-based; conditions: H460 cells; 0-20 μM; 24 h; FIG. 1(c)
Experimental: (§2) An MTT assay to test cell viability was performed based on the conversion of the yellow tetrazolium salt to the purple formazan product. Cells (10^4 cells/well) were grown in a 96-well plate supplemented with standard culture medium. Cells were treated with RUT and F-RUT (0-20 μM) for 24 h. An MTT stock solution (5 mg of MTT/mL of phosphate-buffered saline; PBS) was added to the growing cultures for 2 h. The absorbance was measured with a spectrophotometer at 560 nm. DMSO alone was measured as a reading control. Data were reported as the mean±SEM values of five independent determinations.

KLF10 KO mice [2] = test: Lung inflammation and collagen formation in OVA/alum-challenged KLF10 KO mice; format: in vivo
Experimental: (§3) BALB/c mice (six weeks of age) were obtained from the Animal Center of the College of Medicine, National Taiwan University (Taipei, Taiwan), and sensitized with an intraperitoneal injection of 20 μg of ovalbumin (OVA) emulsified in 2 mg of aluminum hydroxide in a total volume of 200 μL phosphate-buffered saline (PBS) on day 0, and boosted with 50 μg of OVA emulsified in 4 mg of aluminum hydroxide on days 14 and 28. RUT or F-RUT was given by oral administration on days 30, 32, 34, 36, and 38. For post-challenge, all mice were treated intranasally with OVA (100 μg in a total volume of 40 μL PBS) on days 40, 41, 42, and 43. At 24 h after the last OVA challenge, mice were sacrificed, and their organs were collected. All experimental procedures were reviewed and approved by the Institutional Animal Care and Use Committee or Panel. Lung tissues were fixed in 4% paraformaldehyde (sc-281692; Santa Biotechnology) and embedded in paraffin. Tissue sections were made at a 5-μm thickness, and stained with hematoxylin and eosin (H&E) solution for examination of inflammation.
KLF10 gene is regulated by transforming growth factor (TGF)-β/Smad. Deletion of Klf10 in mice is associated with significant inflammation of the lungs challenged with OVA/alum for 44 days. In another experiment, KLF-10 KO mice was used. […]

TNF-α = TNF-α release by LPS-treated RAW264.7 macrophages (mouse TNF-α Quantikine kit); format: cell-based; conditions: FIG. 1(b)
Experimental: FIGS. 1A thru 1C show the effects of 10-fluoro-2-methoxyrutaecarpine (F-RUT) on nitric oxide (NO) and tumor necrosis factor (TNF)-α release by lipopolysaccharide (LPS)-treated (40 ng/mL) RAW264.7 macrophages: (a) NO levels were detected in culture medium using the Griess reaction; (b) TNF-α release in cell supernatants was detected using a mouse TNF-α Quantikine kit; (c) Cell viability upon F-RUT and rutaecarpine (RUT) treatment for 24 h in an MTT assay. Values are expressed as the mean±SE. *p<0.05, **p<0.01.
(§4) NO production was evaluated by measuring the nitrite concentration in supernatants of cultured RAW264.7 macrophages. Cells were first seeded at a density of 2×10^5 cells/mL in 24-well plates for 24 h, followed by co-treatment with different concentrations of F-RUT with lipopolysaccharide (LPS) (40 ng/mL) for another 24 h. The amount of nitrite in cell culture supernatants was detected using the Griess reagent (1% sulfanilamide in 5% phosphoric acid and 0.1% naphthylethylenediamine dihydrochloride in water). Data are reported as the mean±standard error of the mean (SEM) values of three independent determinations.

A2780 cells [3] = test: Wound-healing cell migration assay; format: cell-based; conditions: 0-5 μM, 0-24 h, FIG. 3(a)
Experimental: A2780 cells were cultured at a density of 2×10^5 cells/well in 6-well plates and incubated at 37° C. for 24 h. A centerline in the cells was scratched using a 200-μL pipette tip and washed with PBS. Then, new complete medium was added and treated with or without 1 and 2.5 μM of F-RUT for 24 h. At the endpoint of incubation, cells were examined and photographed with an optical microscope. The distance between the edges of the scratched area was measured and calculated to estimate the migratory ability of cells.
As illustrated in FIG. 3(a), wound-healing assays used an ovarian carcinoma A2780 cell line in the presence of F-RUT (0-5 μM) for 0-24 h. The migration rate was measured using imaging software, and Student's t-test was used for the statistical analysis.

COX-2 [4] = test: COX-2 enzyme activity
TRPV1 = TRPV1 protein in human aortic endothelial cells (immunoblotting); format: cell-based; conditions: HAECs; 20 μM; 15 min; normalized with α-tubulin
Experimental: as §1
(§5) TRPV1 is reportedly present in ECs of arteries. To validate the expression of TRPV1 in the endothelium, the TRPV1 protein of human aortic ECs (HAECs) was detected using immunoblotting; the method of Western Blot Analysis has been stated in Example 4. F-RUT treatment (20 μM) for 15 min increased TRPV1 protein amounts two-fold compared to the control group after normalization with α-tubulin levels (FIG. 4). The effect of F-RUT on the phosphorylation of eNOS in HAECs is further examined because NO production is consequently regulated by the phosphorylation of eNOS.

RAW264.7 macrophages = test: NO production (nitrite, Griess reagent) by LPS-treated RAW264.7 macrophages; format: cell-based; conditions: LPS 40 ng/mL co-treatment 24 h; 0-20 μM; FIG. 1(a)
Experimental: The RAW264.7 macrophage cell line and A2780 ovarian carcinoma cells were grown in Dulbecco's modified Eagle medium (DMEM) containing 10% fetal bovine serum (FBS), 100 U/mL penicillin, 100 μg/mL streptomycin, 1 mM sodium pyruvate, 4.5 g/L glucose, 4 mM 1-glutamine, and 1.5 g/L sodium bicarbonate at 37° C. in a humidified atmosphere with 5% CO2. Primary human aortic ECs (HAECs) were grown in a MesoEndo Endothelial Cell Growth Medium Kit (Cell Applications, San Diego, Calif., USA) supplemented with 10% FBS at 37° C. in a humidified atmosphere with 5% CO2.
as §4

KLF10 KO mice [5] = test: Blood-air-barrier thickness by TEM in OVA/Alum-challenged KLF10 KO mice; format: in vivo; conditions: KLF-10 KO mice; oral; OVA/Alum group 586 nm, control group 348 nm; FIG. 6
Experimental: Blood-Air-Barrier (alveolar-capillary membrane), gas exchanging region of the lungs, was measured to perform the lung function. After the KLF-10 KO mice were challenged with OVA/Alum and oral administration of RUT or F-RUT, the lung was harvested to measure the thickness of blood-air-barrier by TEM. The average thickness of blood-air-barrier was significant increased in OVA/Alum group (586 nm compared to 348 nm in control group) and reversed by RUT or F-RUT (418 and 393 nm, respectively), see FIG. 6.

CL1-3 = test: MTT cell viability assay, CL1-3; format: cell-based; conditions: CL1-3 cells; 0-20 μM; 24 h; FIG. 1(c)
Experimental: as §2

iNOS = iNOS protein expression in LPS-treated RAW264.7 macrophages (Western blot); format: cell-based; conditions: FIG. 2(a)
Experimental: as §1

RAW264.7 = test: MTT cell viability assay, RAW264.7; format: cell-based
Experimental: as §2

BALB/c mice = test: Lung inflammation in OVA/alum-challenged BALB/c mice; format: in vivo; conditions: alternate-day oral administration, FIG. 5(a)
Experimental: as §3

NF-κB = test: NF-κB-dependent luciferase reporter assay in LPS-induced macrophages; format: cell-based; conditions: 0-2.5 μM; LPS 40 ng/mL 24 h; FIG. 2(b)
Experimental: RAW264.7 macrophages were seeded in a 96-well plate with DMEM. Then, cells were transfected with the pGL4.32 [luc2P/NF-κB-RE/Hygro] (Promega, Madison, Wis., USA) plasmid reporter gene using TurboFect Transfection Reagent (Fermentas, Glen Burnie, Md., USA). At 24 h after transfection, cells were treated with LPS (40 ng/mL) and F-RUT for 24 h in serum-free medium. Then the luciferase activity was detected by the luminescence measured in a luminescence microplate reader (Thermo Varioskan Flash, Waltham, Mass., USA) using a ONE-Glo luciferase assay kit (Promega). Luciferase activities were normalized to protein concentrations.

zebrafish = test: LPS-induced ROS level in zebrafish; format: in vivo; conditions: 5 ng/ml F-RUT, LPS 10 and 20 ng/ml, FIG. 7
A2780 cells [6] = test: Transwell Matrigel cell invasion assay; format: cell-based; conditions: 0-2.5 μM, 24 h, FIG. 3(b)
Experimental: A2780 cell invasion was evaluated using 24-well transwell inserts (8-μm-pore filters, Merck Millipore) individually coated with Matrigel (BD Biosciences, Bedford, Mass., USA). A2780 cells (2×10^4 cells in each well) were cultured for 24 h with serum-free minimum essential medium (MEM) and then treated with F-RUT (1.25 or 2.5 μM) for another 24 h in the upper chamber of the transwell. Medium containing 10% FBS was placed in the lower chamber. At the end of incubation, non-migrated cells were removed using a cotton swab; cells that had penetrated to the opposite surface of the filter were fixed with 4% formaldehyde and stained with 2% crystal violet. Stained cells were counted and photographed under a phase-contract optical microscope at 200× magnification. Three independent experiments were performed as described elsewhere.

eNOS = eNOS phosphorylation in human aortic endothelial cells (immunoblotting); format: cell-based; conditions: HAECs; 20 μM; 15 min; normalized with total eNOS
Experimental: as §1, §5

| COX-2 enzyme activity (COX-2 [4]) | SMILES | COX-2 protein expression (COX-2 [1]) | cytotoxicity (H460) | collagen formation around the bronchus (KLF10 KO mice [2]; KLF10 KO mice, oral administration, 25% in OVA/Alum group, FIG. 5(c)) [%] | OVA/alum-induced lung inflammation (KLF10 KO mice [2]; KLF-10 KO mice, alternate-day oral administration, FIG. 5(b)) | TNF-α released into the medium (TNF-α) | cell migration (A2780 cells [3]) | increase of TRPV1 protein amounts compared to the control group (TRPV1) | NO production (RAW264.7 macrophages) | average thickness of blood-air-barrier (KLF10 KO mice [5]) [nm] | cytotoxicity (CL1-3) | iNOS protein expression (iNOS) | cytotoxicity (RAW264.7; RAW264.7 cells, 0-20 μM, 24 h, FIG. 1(c)) | cytotoxicity compared to RUT (RAW264.7; compared to RUT) | OVA/alum-induced lung inflammation (BALB/c mice) | LPS-induced NF-κB transcriptional activity (NF-κB) | LPS-induced ROS level (zebrafish) | cell invasion (A2780 cells [6]) | increase of phosphorylation of eNOS compared to the control group (eNOS) [fold] |
| --- | --- | --- | --- | --- | --- | --- | --- | --- | --- | --- | --- | --- | --- | --- | --- | --- | --- | --- | --- |
| the enzyme activity is also inhibited | COc1ccc2c(=O)n3c(nc2c1)-c1[nH]c2ccc(F)cc2c1CC3 [F-RUT, 10-fluoro-2-methoxyrutaecarpine] | suppressed their expressions in a concentration-dependent manner | substantially no cytotoxicity | 18 | ameliorated the OVA/alum-induced lung inflammation | suppressive effect of TNF-α released into the medium | significant effects against cell migration | two-fold | suppressed NO production in a concentration-dependent (0-20 μM) manner | 393 | substantially no cytotoxicity | suppressed their expressions in a concentration-dependent manner | substantially no cytotoxicity | less cytotoxicity | ameliorated the OVA/alum-induced lung inflammation | inhibited LPS-induced NF-κB transcriptional activity | suppressed the LPS-induced ROS | invasion inhibitory activity | 1.4 |
|  | O=c1c2ccccc2nc2n1CCc1c-2[nH]c2ccccc12 [RUT, Rutaecarpine] |  |  |  |  |  |  |  |  | 418 |  |  |  |  |  |  |  |  |  |
